The source of these data is patent US11192891B2, “Diazaspiro ROCK inhibitors” (BRISTOL-MYERS SQUIBB COMPANY, priority 2017, dated 2021).

Each structure is given as a SMILES string.

The assay concerns the target ROCK2 (Homo sapiens, UniProt O75116). The assay is described as follows: ROCK kinase inhibition assay, FITC peptide substrate, LABCHIP 3000 readout. It counts as biochemical. The conditions noted are these: 5 μM ATP, 1.5 μM peptide substrate. In short, it runs like this:
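Tested across a concentration range, with percent inhibition of kinase activity derived per concentration. Peptide phosphorylation, initiated by adding the Rho kinase variant (final DMSO <2%), was quenched with EDTA and substrate/product resolved by mobility shift.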

Chain of ROCK2 (O75116 whole entry, species assumed): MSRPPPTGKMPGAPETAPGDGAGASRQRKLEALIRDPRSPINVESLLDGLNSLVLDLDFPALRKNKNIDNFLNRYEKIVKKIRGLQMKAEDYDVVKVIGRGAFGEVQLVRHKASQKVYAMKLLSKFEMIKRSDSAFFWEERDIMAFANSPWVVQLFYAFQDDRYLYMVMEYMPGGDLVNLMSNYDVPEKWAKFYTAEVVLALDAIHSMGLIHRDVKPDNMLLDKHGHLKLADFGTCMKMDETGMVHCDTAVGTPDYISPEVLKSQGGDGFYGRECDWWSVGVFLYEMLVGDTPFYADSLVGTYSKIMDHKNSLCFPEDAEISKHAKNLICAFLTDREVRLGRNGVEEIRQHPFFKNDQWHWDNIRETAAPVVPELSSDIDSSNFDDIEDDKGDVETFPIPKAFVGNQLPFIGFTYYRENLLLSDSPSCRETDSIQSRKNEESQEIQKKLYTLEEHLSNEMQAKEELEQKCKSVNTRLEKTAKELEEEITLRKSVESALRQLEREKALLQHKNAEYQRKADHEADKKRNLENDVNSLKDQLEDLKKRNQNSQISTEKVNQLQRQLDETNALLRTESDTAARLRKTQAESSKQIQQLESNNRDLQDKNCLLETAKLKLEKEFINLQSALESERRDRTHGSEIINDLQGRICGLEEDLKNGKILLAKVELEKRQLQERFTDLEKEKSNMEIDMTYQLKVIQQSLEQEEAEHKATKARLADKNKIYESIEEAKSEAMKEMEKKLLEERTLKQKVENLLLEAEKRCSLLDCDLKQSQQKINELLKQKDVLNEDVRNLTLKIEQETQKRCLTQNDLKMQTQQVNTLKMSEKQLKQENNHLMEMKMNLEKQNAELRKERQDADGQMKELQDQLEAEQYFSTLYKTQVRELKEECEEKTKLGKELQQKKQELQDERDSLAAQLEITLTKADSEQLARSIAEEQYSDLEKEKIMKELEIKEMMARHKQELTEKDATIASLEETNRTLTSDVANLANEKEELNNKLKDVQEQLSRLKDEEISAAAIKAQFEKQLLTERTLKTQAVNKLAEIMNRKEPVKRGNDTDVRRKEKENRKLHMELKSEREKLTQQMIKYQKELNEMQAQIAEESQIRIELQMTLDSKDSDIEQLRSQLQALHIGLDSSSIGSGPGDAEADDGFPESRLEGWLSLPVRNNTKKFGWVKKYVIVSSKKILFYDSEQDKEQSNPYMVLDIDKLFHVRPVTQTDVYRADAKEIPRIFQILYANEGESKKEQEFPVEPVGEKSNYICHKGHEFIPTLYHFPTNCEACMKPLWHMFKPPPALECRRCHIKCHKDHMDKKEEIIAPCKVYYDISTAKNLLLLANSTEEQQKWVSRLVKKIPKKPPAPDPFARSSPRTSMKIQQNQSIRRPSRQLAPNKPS

With `COc1ccc(C(=O)N2CCC3(CC2)CC(=O)N(c2ccc(-c4cn[nH]c4)c(OC)c2)C3)cc1` [Example 47, 2-[3-methoxy-4-(1H-pyrazol-4-yl)phenyl]-8-(4-methoxybenzoyl)-2,8-diazaspiro[4.5]decan-3-one], it took 0.306 µM to reach half-maximal inhibition (IC50).

Take `COc1cc(N2CCC3(CCN(C(=O)c4ccc(C5CC5)cc4)CC3)C2=O)ccc1-c1cn[nH]c1` [Example 19, 8-(4-cyclopropylbenzoyl)-2-[3-methoxy-4-(1H-pyrazol-4-yl)phenyl]-2,8-diazaspiro[4.5]decan-1-one]: half-maximal inhibition (IC50) required 0.01 µM.

`COc1cc(N2CCC3(CCN(C(=O)C4Cc5ccccc5O4)CC3)C2=O)ccc1-c1cn[nH]c1` (centres unmarked) [Example 102, 8-(2,3-dihydro-1-benzofuran-2-carbonyl)-2-[3-methoxy-4-(1H-pyrazol-4-yl)phenyl]-2,8-diazaspiro[4.5]decan-1-one] came in with an IC50 of 1.97 µM.

The compound `O=C1N(c2ccc(-c3cn[nH]c3)cc2)CCC12CCN(S(=O)(=O)c1ccccc1)C2` (centres unmarked) [Example 46, 7-(benzenesulfonyl)-2-[4-(1H-pyrazol-4-yl)phenyl]-2,7-diazaspiro[4.4]nonan-1-one] returned an IC50 of 0.75 µM.

As for `COc1cc(N2CCC3(CCN(C(=O)C4CCN(c5ccncc5)CC4)CC3)C2=O)ccc1-c1cn[nH]c1` [Example 175, 2-[3-methoxy-4-(1H-pyrazol-4-yl)phenyl]-8-[1-(pyridin-4-yl)piperidine-4-carbonyl]-2,8-diazaspiro[4.5]decan-1-one], the half-inhibitory concentration (IC50) was 0.195 µM.

`COc1cc(N2CCC3(CCN(C(=O)c4cc(C)cs4)CC3)C2=O)ccc1-c1cn[nH]c1` [Example 82, 2-[3-methoxy-4-(1H-pyrazol-4-yl)phenyl]-8-(4-methylthiophene-2-carbonyl)-2,8-diazaspiro[4.5]decan-1-one] gave an IC50 of 0.109 µM.

`COc1cc(N2CCC3(CCN(C(=O)c4ccc5ccccc5c4)CC3)C2=O)ccc1-c1cn[nH]c1` [Example 64, 2-[3-methoxy-4-(1H-pyrazol-4-yl)phenyl]-8-(naphthalene-2-carbonyl)-2,8-diazaspiro[4.5]decan-1-one] showed an IC50 of 0.104 µM.

As for `COc1cc(N2CCC3(CCN(C(=O)c4ccc5c(ccn5C)c4)CC3)C2=O)ccc1-c1cn[nH]c1` [Example 153, 2-[3-methoxy-4-(1H-pyrazol-4-yl)phenyl]-8-(1-methyl-1H-indole-5-carbonyl)-2,8-diazaspiro[4.5]decan-1-one], the IC50 came out at 0.0045 µM.

With `COc1cc(N2CCC3(CCN(C(=O)c4ccc(-c5cccnc5)cc4)CC3)C2=O)ccc1-c1cn[nH]c1` [Example 158, 2-[3-methoxy-4-(1H-pyrazol-4-yl)phenyl]-8-[4-(pyridin-3-yl)benzoyl]-2,8-diazaspiro[4.5]decan-1-one], the IC50 amounted to 0.0041 µM.

For the compound `COc1cc(N2CCC3(CCN(C(=O)c4ccc5cc6n(c5c4)C(C)CNC6=O)CC3)C2=O)ccc1-c1cn[nH]c1` (centres unmarked) [Example 150, 2-[3-methoxy-4-(1H-pyrazol-4-yl)phenyl]-8-{4-methyl-1-oxo-1H,2H,3H,4H-pyrazino[1,2-a]indole-7-carbonyl}-2,8-diazaspiro[4.5]decan-1-one], the IC50 is 0.144 µM.

In turn, `COc1cc(N2CCC3(CCN(C(=O)c4cccc5[nH]cnc45)CC3)C2=O)ccc1-c1cn[nH]c1` [Example 197, 8-(1H-1,3-benzodiazole-4-carbonyl)-2-[3-methoxy-4-(1H-pyrazol-4-yl)phenyl]-2,8-diazaspiro[4.5]decan-1-one] returned an IC50 of 0.061 µM.

`COc1cc2cc(C(=O)N3CCC4(CC3)CCN(c3ccc(-c5cn[nH]c5)c(OC)c3)C4=O)n(C)c2cc1OC` [Example 178] gave an IC50 of 0.014 µM.

`COc1cc(N2CCC3(CCN(C(=O)c4ccc5ncsc5c4)CC3)C2=O)ccc1-c1cn[nH]c1` [Example 83] returned an IC50 of 0.026 µM.

In turn, `COc1ccc(C(=O)N2CCC3(CC2)CCN(c2ccc(-c4cn[nH]c4)c(OC)c2)C3=O)cc1Cl` [Example 22, 8-(3-chloro-4-methoxybenzoyl)-2-[3-methoxy-4-(1H-pyrazol-4-yl)phenyl]-2,8-diazaspiro[4.5]decan-1-one] showed an IC50 of 0.006 µM.

By IC50 is commonly meant the point on the concentration scale where inhibition reaches its midpoint.
